Assay results as given in US20170260169A1, “INHIBITORS FOR STEROID RESPONSE ELEMENTS AND RNA POLYMERASE II AND RELATED METHODS” (priority 2007, published 2017).
One block for each compound: values may come before it.

How the values were obtained:
[1] = system: GILZ mRNA expression in A549 cells; test: Dexamethasone-induced GILZ mRNA in A549 cells, quantitative real-time RT-PCR; type: cell-based
[2] = system: FKBP5 mRNA expression in LNCaP cells; test: DHT-induced FKBP5 mRNA in LNCaP cells; type: cell-based
[3] = system: transcripts in DHT-stimulated LNCaP cells; test: Gene expression with Affymetrix Human Genome U133 Plus 2.0 arrays, DHT-stimulated LNCaP cells; type: cell-based
Procedure: LNCaP cells were plated in 12-well plates at a density of 80-100×10^3 cells per well. Media, polyamide treatments, and time courses were the same as described above. Bicalutamide was added 2 h before DHT stimulation. RNA was isolated as described in ref. 21. From this point, experiments were carried out at the Millard and Muriel Jacobs Gene Expression Facility at the California Institute of Technology. Labeled mRNA was hybridized to Affymetrix high-density Human Genome U133 Plus 2.0 arrays according to established protocols. Gene expression was analyzed by using Resolver (Rosetta Biosoftware, Seattle, Wash.). Data were uploaded to the Gene Expression Omnibus repository (accession no. GSE7708).
Global effects of polyamides 1 and 2 and bicalutamide on gene expression in DHT-stimulated LNCaP cells were monitored with Affymetrix (Santa Clara, Calif.) high-density Human Genome U133 Plus 2.0 arrays, which interrogate >50,000 transcripts.

[4] = system: AR occupancy at the FKBP5 intronic enhancer; test: Chromatin immunoprecipitation with anti-AR, FKBP5 fifth intron enhancer; type: cell-based; conditions: 10 μM
[5] = system: AR occupancy at the PSA promoter and enhancer; test: Chromatin immunoprecipitation with anti-AR, PSA promoter and enhancer; type: cell-based
Procedure: LNCaP cells were plated in 15-cm diameter plates at a density of 2×10^6 cells per plate. Media, polyamide treatment, time course, and DHT stimulation were the same as described above. After the 16-h DHT treatment, cells were treated with 1% formaldehyde for 10 min. Chromatin was isolated and sheared. Antibodies to AR (AR-20, Santa Cruz Biotechnology, Santa Cruz, Calif.) were used to immunoprecipitate AR-bound DNA fragments. Crosslinks were reversed, and PCRs using primers targeted to the regions of interest were used to assess enrichment of bound fragments as compared with mock-precipitated (no antibody) controls. PCRs were monitored with SYBR Green PCR Master Mix (Applied Biosystems) on an ABI 7300 instrument. Primer sequences and a more detailed experimental protocol are available upon request.

[6] = system: binding of LNCaP nuclear extract factors to the ARE site in the PSA promoter; test: Electrophoretic mobility shift assay with DHT-stimulated LNCaP nuclear extract; type: biochemical; conditions: same concentrations
Procedure: containing the PSA promoter ARE (underlined) was end-labeled with ^32P and annealed to its complement. Polyamides 1 and 2 were incubated with the duplex for 3 h in previously optimized buffer conditions (45). Nuclear extract from DHT-treated LNCaP cells (Genetex, San Antonio, Tex.) was then added for an additional 45 min. Complexes were run on a 5% polyacrylamide gel and visualized on a phosphorimager.
The effects of polyamides 1 and 2 on the binding of factors present in the nuclear extract isolated from DHT-stimulated LNCaP cells to the ARE site in the PSA promoter was measured by an electrophoretic mobility shift assay (FIG. 8D).

ARE of the PSA promoter = test: Quantitative DNase I footprint titration on pAR-PSA fragment; type: binding
Text: Plasmid pAR-PSA was constructed by inserting a 70-bp sequence from the PSA promoter containing the ARE into pUC19 plasmid. […] Detailed experimental protocols are reported elsewhere (44). The proximal PSA promoter contains the ARE [NT] ID NO:15) (FIG. 8A). […] However, 1 is observed to bind the sequence [NT]≈12 bp 5' to the ARE, which is an expected binding site for this molecule.

[7] = system: PSA mRNA expression in LNCaP cells; test: DHT-induced PSA mRNA in LNCaP cells, quantitative real-time RT-PCR; type: cell-based
[8] = Escalating single dose subcutaneous injections, male C57BL/6J mice (weight, histopathology, serum)
[9] = cited from earlier work
[10] = Liver microsomal stability, human
[11] = previous assay, 0.3 mg/ml enzyme (34); cited from earlier work
[12] = Liver microsomal stability, mouse
[13] = Multiple-dose subcutaneous injections, male C57BL/6J mice; type: in vivo; conditions: 1 mg/kg SC every 3 days
Procedure: In addition to single dose injections, the effects of repeated dosing of polyamides 77-80 in mice were examined. In this experiment, 8 week-old male C57BL/6J mice (n=3 per dosing group) were treated with 1 mg/kg of polyamides 77-80 by subcutaneous injection every 3 days, for a cycle of three injections and then sacrificed two days after the final injection (FIG. 31A). As in the single dosing experiments, two mice per group were subjected to histopathology analysis and all blood samples were sent for analysis. […] These mice were promptly euthanized.
Serum from treated animals were collected by retroorbital bleeding. […] All samples were sent for analysis at IDEXX-RADIL.

[14] = system: DNA damage in LNCaP cells; test: Alkaline comet assay in LNCaP cells; conditions: polyamide 10 μM 48 h; dox 5 μM 4 h
p53 = p53 protein ELISA in LNCaP cells; type: cell-based; conditions: polyamide 10 μM 72 hr; doxorubicin 1 μM 24 hr
Procedure: (§1) Cellular levels of RPB1 and p53 protein in LNCaP cells after treatment with 10 μM 3 for 72 h were determined by ELISA. Cells treated with DMSO vehicle and 1 μM doxorubicin for 24 h were used as control. Cellular RBP1 levels were determined by a RPB1 specific ELISA kit (Cusabio Life Sciences) according to manufacturer's instructions. Total cellular p53 protein level was determined with a pan-p53 ELISA kit (Roche) according to manufacturer's instructions. Assays were performed in biological triplicates.

RPB1 = RPB1 protein ELISA in LNCaP cells; type: cell-based; conditions: polyamide 10 μM 72 hr; doxorubicin 1 μM 24 hr
Procedure: as §1, with “Cellular levels of RPB1 and p53 protein in LNCaP cells after treatment with 10 μM 3 for 72 h were determined by ELISA.” left out

[15] = 10 μM, + DHT, relative to DHT-induced controls, p ≦ 0.01
[16] = relative to DHT-induced controls, + DHT
[17] = 1 μM, Human, 1 hr at 37° C., 1 mg/ml microsomes
[18] = 1 μM, Mouse, 1 hr at 37° C., 1 mg/ml microsomes

occupancy of AR at the FKBP5 intronic enhancer [4]: no measurable effect | occupancy of AR at the PSA promoter and enhancer ([5]; 1 μM as printed): minimal effect | AR occupancy at the PSA promoter and enhancer ([5]; 10 μM, FIG. 9 legend): not | effect on binding to the labeled duplex [6]: minimal effect | binding in the footprinted region (ARE of the PSA promoter): no measurable binding | Ka (ARE of the PSA promoter; ARE consensus half-site 5′-AGAACA-3′): < 1e+07 M⁻¹
SMILES: CN(CCCNC(=O)c1cccc(C(=O)O)c1)CCCNC(=O)c1cc(NC(=O)c2cc(NC(=O)c3nc(NC(=O)c4cc(NC(=O)[C@H](N)CCNC(=O)c5nc(NC(=O)c6cc(NC(=O)c7cc(NC(=O)c8nccn8C)cn7C)cn6C)cn5C)cn4C)cn3C)cn2C)cn1C [Polyamide 2]
effect on GILZ mRNA induction [1]: more modest effect | effect on FKBP5 expression [2]: minimal effect | Number of transcripts down-regulated (fold change ≦ −2.0) [3, 15]: 284 | Number of transcripts down-regulated (fold change ≦ −4.0) [3, 15]: 32 | Number of transcripts up-regulated (fold change ≧ 2.0) [3, 15]: 95 | Number of transcripts up-regulated (fold change ≧ 4.0) [3, 15]: 11 | number of transcripts affected by at least 2-fold ([3]; 10 μM, P≦0.01, vs DHT-induced controls): 379 | share of interrogated transcripts affected ([3]; 10 μM, at least 2-fold): < 1% | number of the 88 DHT-repressed transcripts derepressed at least 2-fold ([3]; P≦0.01): 3 | number of the 199 DHT-induced transcripts inhibited at least 2-fold ([3]; P≦0.01): 20 | Fold-change of FKBP5 [3, 16]: 1.5 | Fold-change of KLK2 [3, 16]: −1.1 | Fold-change of KLK3 (PSA) [3, 16]: −1.4 | Fold-change of TMPRSS2 [3, 16]: −1.4 | effect on DHT-induced PSA mRNA [7]: more modest effect | effects on cell growth ([7]; LNCaP, over the course of the experiment): no obvious detrimental effects on cell growth

SMILES: CC(=O)N[C@@H](CNC(=O)c1cc(NC(=O)c2cc(NC(=O)c3cc(NC(=O)c4nccn4C)cn3C)cn2C)cn1C)CC(=O)Nc1cn(C)c(C(=O)Nc2cc(C(=O)Nc3cc(C(=O)Nc4cc(C(=O)NCCCN(C)CCCNC(=O)c5cccc(C(=O)O)c5)n(C)c4)n(C)c3)n(C)c2)n1 [Polyamide 80, ImPyPyPy-3-(R)^AcHNγ-ImPyPyPy-NHMe-IPA]
tolerability, behavior and morbidity after single SC dose ([8]; 1, 3, 10 mg/kg): only tolerated at 1 mg/kg | kidney histopathology ([8]; single SC 1 mg/kg): Milder tubular regeneration and karyomegaly | liver histopathology ([8]; single SC 1 mg/kg): Mild hepatocellular necrosis and apoptosis | kidney histopathology ([8]; single SC 3 mg/kg): Moderate atypical tubular regeneration | liver histopathology ([8]; single SC 3 mg/kg): multifocal bridging hepatocellular necrosis and apoptosis | spleen histopathology ([8]; single SC 3 mg/kg): Mild lymphoid apoptosis in the white pulp of the spleen | kidney histopathology ([8]; single SC 10 mg/kg): Moderate atypical tubular regeneration | liver histopathology ([8]; single SC 10 mg/kg): multifocal bridging hepatocellular necrosis and apoptosis | spleen histopathology ([8]; single SC 10 mg/kg): Mild lymphoid apoptosis in the white pulp of the spleen | serum kidney markers creatinine and BUN ([8]; single SC dose): significantly elevated creatinine and BUN at 10 mg/kg, and elevated BUN at 3 mg/kg | serum liver markers AST, ALT, total bilirubin ([8]; single SC dose): marked and severe elevations of AST, ALT, and total bilirubin at both 3 mg/kg and 10 mg/kg | animal toxicity after single subcutaneous administration ([9]; female C57BL/6J mice, 77 at 2.5 and 5 mg/kg, 80 at 2.3 and […]): acute animal toxicity in addition to weight loss | renal clearance ([9]; mouse, in vivo): significant renal clearance was exclusive to 80 | Mean remaining parent NADPH-free [10, 17]: 3.8% | Mean remaining parent with NADPH [10, 17]: 3.0% | intact after 1 hour incubation ([10]; human liver microsomes, with or without NADPH): less than 5% | stability against rat and human microsomes [11]: stable | Mean remaining parent NADPH-free [12, 18]: 4.9% | Mean remaining parent with NADPH [12, 18]: 4.0% | intact after 1 hour incubation ([12]; mouse liver microsomes, with or without NADPH): less than 5% | liver and kidney histopathology [13]: marked hepatocellular necrosis and apoptosis in the liver and hyaline droplet accumulation in the kidneys | weight and physical morbidity ([13]; three injections): dramatic weight loss, loss of mobility, and hunched posture within six days

SMILES: COc1cccc2c1C(=O)c1c(O)c3c(c(O)c1C2=O)C[C@@](O)(C(=O)CO)C[C@@H]3O[C@H]1C[C@H](N)[C@H](O)[C@H](C)O1 [doxorubicin, reference compound]
DNA damage by comet assay [14]: significantly increases comet-tail percent of DNA | cellular level of p53 protein (p53): increases | RPB1 protein (RPB1): decreases
